Measurements from patent US20020002269A1, “ARTEMIN, A NEUROTROPHIC FACTOR” (priority 1998, published 2002).

B1: GDNF: recombinant human mature GDNF obtained from Genentech (protein, UniProt P39905 78-211, looked up)
Glial cell line-derived …: SPDKQMAVLPRRERNRQAAAANPENSRGKGRRGQRGKNRGCVLTAIHLNVTDLGLGYETKEELIFRYCSGSCDAAETTYDKILKNLSRNRRLVSDKVGQACCRPIAFDDDLSFLDDNLVYHILRKHSAKRCGCI

Legend:
[1] = test system: dopaminergic neurons from the rat embryonic ventral midbrain; test: Survival of TH+ dopaminergic ventral midbrain neurons; assay type: cell-based; settings: E14 rat, 50 ng/ml, 3 days in culture, FIG. 7F
Method: Embryonic day 14 ventral mesencephalon cultures were prepared by removing the entire mesencephalon into cold Leibovitz's L15+6 mg/ml glucose and dissecting the tissue while keeping it on ice. Following dissection, the tissue was digested in a mixture of dispase (1 mg/ml, Sigma) and collagenase (1 mg/ml, Worthington Biochemical) for 25 min. Tissue was then washed twice with modified N2 media and triturated 35 times. Cell density and viability was assessed using a hemocytometer to count trypan blue excluding cells. Cells were plated at 20,000 cells/well on 8-well chamber slides (coated with 125 ng/ml poly-D-lysine and 25 ng/ml laminin) in serum-free medium consisting of DME/Hams F12 (1:1), 1 mg/ml BSA, 5 μM insulin, 10 nM progesterone, 100 μM putrescine, 30 nM selenium, 10 ng/ml rat transferrin, 100 U/ml penicillin, 100 U/ml streptomycin. Factors were added within 15 min of plating. After 3 days in culture, the cells were fixed, stained for tyrosine hydroxylase, and the number of tyrosine hydroxylase staining (TH+) neurons were counted. The results from two independent experiments are shown in FIG. 7F as the percentage of surviving TH+ neurons over control.

[2] = test system: NLF cells transformed with GFRα2; test: Ga14-Elk/Ga14-Luc reporter in NLF neuroblastoma cells transformed with GFRα2; assay type: cell-based; settings: factor for 24 hours, low-serum medium, FIG. 10B
Method: Thus, to directly test which receptor combinations can form functional receptors for artemin, expression plasmids for the individual GFRA coreceptors together with the Ga14-Elk/Ga14-Luc reporter system were transiently transformed into fibroblasts that stably express RET. […]
NLF neuroblastoma cells, which naturally express GFRα2/RET (Tansey et al., submitted), or the RET-3T3 cells were plated at 85,000 cells/well in 12-well plates, and cotransfected with the reporter plasmids Ga14-Luc and CMV-Ga14-Elk (250 ng/well and 50 ng/well, respectively), CMV-lacZ (50 ng/well) for transfection normalization, one of the CMV-GFRA expression plasmids (500 ng/well), and pBluescript (650 ng/well) as carrier for a total of 1.5 μg DNA/well using the Superfect reagent (Qiagen) according to the manufacturer's instructions. […] Measurement of luciferase and β-galactosidase activity was measured using a luminometer and performed as described (Svaren et al., EMBO J 17:6010-6019, 1998). The average luciferase activity of duplicate samples was normalized to β-galactosidase activity of the cotransformed lacZ reporter, and fold activation was calculated by dividing the normalized activity in factor-treated cells by that in the no treatment control.

[3] = test system: GFRα1-Fc; test: Direct binding of soluble GFRα1-Fc receptor body to plate-coated ligand; settings: ligand coated at 325 ng/ml, absence of RET, FIG. 9C
Method: (§1) To investigate which if any of the known coreceptor(s) artemin can utilize to activate RET, its ability to directly bind to soluble Fc-fusion forms of GFRα1, GFRα2, or GFRα3 was assessed. GFRα1-Fc, GFRα2-Fc and GFRα3-Fc fusion proteins were obtained from R&D Systems. Binding assays were performed similarly to assays previously described (Sanicola et al., Proc. Natl. Acad. Sci., USA 94:6238-6243, 1997). Recombinant GDNF, neurturin, artemin, persephin, or purified bovine serum albumin (BSA; Pierce) were coated to Nunc-Immuno MaxiSorp microtiter plates at 325 ng/ml in TBS (10 mM Tris-HCl pH 7.5, 150 mM NaCl) for 1 hour at 25° C. Plates were washed (3× in TBS/0.03% Tween-20), and then blocked (blocking solution: TBS/1% BSA) for 1 hr at 25° C. Receptor bodies diluted in blocking solution were added and incubated for 2 hr at 25° C., washed 5X, then incubated with 1:10,000 dilution of HRP-conjugated anti-human Fc antibodies in blocking solution (Jackson Immunoresearch) for 45 minutes at 25° C. Finally, wells were washed 5× and the presence of HRP was assayed by addition of the chromogenic substrate 3,3, 5,5-tetramethylbenzidine for 5 min. The reaction was stopped by adding an equal volume of 0.5M H2SO4, and color was measured in a plate reader at 450 nm. Non-specific binding of receptor bodies to the plates was measured in BSA coated wells, and this binding was subtracted from all other measurements.

[4] = target: T1, GFRα3-Fc (Homo sapiens, UniProt O60609); test: Direct binding of soluble GFRα3-Fc receptor body to plate-coated ligand; settings: ligand coated at 325 ng/ml, absence of RET, FIG. 9E
T1 construct: purchased R&D Systems
T1 sequence (O60609 with tags, fused parts or gaps limits assumed): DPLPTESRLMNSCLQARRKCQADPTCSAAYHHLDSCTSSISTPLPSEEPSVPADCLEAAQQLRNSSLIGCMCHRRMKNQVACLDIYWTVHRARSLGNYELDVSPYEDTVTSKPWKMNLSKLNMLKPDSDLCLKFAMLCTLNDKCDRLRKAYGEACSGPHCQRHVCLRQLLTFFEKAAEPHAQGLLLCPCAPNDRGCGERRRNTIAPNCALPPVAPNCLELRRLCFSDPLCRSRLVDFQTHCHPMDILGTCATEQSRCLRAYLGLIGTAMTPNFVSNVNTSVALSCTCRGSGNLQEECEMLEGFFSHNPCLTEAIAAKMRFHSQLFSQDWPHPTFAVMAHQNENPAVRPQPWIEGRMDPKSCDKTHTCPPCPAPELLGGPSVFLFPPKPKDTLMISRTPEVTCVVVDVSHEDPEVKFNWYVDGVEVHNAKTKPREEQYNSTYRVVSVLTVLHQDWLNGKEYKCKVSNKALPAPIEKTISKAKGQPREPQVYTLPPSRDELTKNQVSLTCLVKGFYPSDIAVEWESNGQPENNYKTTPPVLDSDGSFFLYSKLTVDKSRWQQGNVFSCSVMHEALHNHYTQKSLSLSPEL
Method: as §1, with “Finally, wells were washed 5× and the presence of HRP was assayed by addition of the chromogenic substrate 3,3, 5,5-tetramethylbenzidine for 5 min.” left out

[5] = test system: SH-SY5Y neuroblastoma cell line; test: Differentiation of SH-SY5Y neuroblastoma cells; assay type: cell-based; settings: 50 ng/ml, three days after factor addition, FIG. 8C
Method: In one experiment, cells from the SH-SY5Y neuroblastoma cell line were plated at 2×10^5 cells/ml/well in 12-well tissue culture plates. After one day in culture cells were either left untreated (Cn) or stimulated with 50 ng/ml artemin (ART) or 10 μM retinoic acid (RA), a known inducer of differentiation of SH-SYSY cells. Three days after factor addition, differentiation was assessed and cells were photographed.

Molecule	survival of TH+ dopaminergic midbrain neurons [1]	response of NLF cells transformed with GFRα2 (luciferase reporter) [2]	direct binding of GFRα1-Fc [3]	direct binding of GFRα3-Fc [4]	differentiation (neurite outgrowth, neuronal morphology) of SH-SY5Y cells [5]
artemin: recombinant mature human artemin (FIG. 3A, SEQ ID NO:3) with 8-histidine tag, produced in E. coli; GDNF family neurotrophic factor	supported the survival of dopaminergic midbrain neurons	not GFRα2	not to persephin or artemin	able to bind to artemin	induced strong differentiation responses
B1			able to bind to both GDNF and neurturin with similar affinity		
